According to US7390870B2, “Immune-enhancing peptides” (Posco, priority 2001, dated 2008):

Key:
monocytes [1] = assay: Effect of enzyme inhibitors on peptide-induced monocyte chemotaxis; assay type: cell-based, human; settings: FIG. 10; for inhibition of MFYLPM-induced chemotaxis: 1 μM MFYLPM
Protocol: (§1) Chemotaxis assays of the peptide were performed using multiwell chambers (Neuroprobe Inc., Gaithersburg, Md.) (20). Briefly, the prepared isolated human monocytes were suspended in RPMI at a concentration of 1×10^6 cells/ml of serum-free RPMI, and 25 □ of the suspension were placed onto the upper well of a 96-well chemotaxis chamber that was separated by a […] filter with a 5 □ pore size (3 □ diameter pores not coated with polyvinylpyrrolidone for neutrophils) from peptides or an fMLF-containing lower well. After incubation for 2 hours (90 minutes for neutrophils) at 37° C., non-migrated cells were removed by scraping them out, and cells that migrated across the filter were dehydrated, fixed, and stained with hematoxylin (Sigma, St. Louis, Mo.). The stained cells in five randomly chosen high power fields (HPF) (400×) in that well were then counted (21). The numbers of migrated cells were determined by counting them in a high power field (400×). For a checkboard analysis, cells were re-suspended in RPMI containing various concentrations of the peptide just before transferring them to the upper wells as described before (22).
Monocytes were pretreated either with LY (LY294002, 50 μM), GFX (GF109203X, 5 μM), or PD (PD98059, 50 μM), or they remained untreated for the control After an incubation of the indicated periods (15 minutes for LY294002 and GF109203X, 60 minutes for PD98059), the cells were washed twice and used for chemotaxis assay. 25 □ of monocytes at 1×10^6 cells/ml were added to the upper wells and allowed to migrate for 2 hrs at 37° C. (humidified atmosphere; 5% CO2) toward each peptide (1 μM HFYLPM, 1 μM MFYLPM, or 10 nM HFYLPm) or medium. After fixing and staining of the membrane, the numbers of migrated cells were determined by counting them in a high power field (400×). The results are shown FIG. 10. The data are presented as means ±S.E. of three independent experiments each performed in duplicate. *P<0.01 versus medium treatment and †P<0.01 versus peptide treatment, respectively.

monocytes [2] = assay: Effect of PTX on peptide-induced chemotactic migration in monocytes; assay type: cell-based, human; settings: FIG. 8, PTX preincubation 90 minutes
Protocol: as §1
Several extracellular signals including many chemoattractants activate phagocytic cells via pertussis toxin (PTX)-sensitive G-protein(s) (27-29). Therefore, the involvement of PTX-sensitive G-protein(s) on the peptide-induced monocyte activation was examined. Monocytes were preincubated with PTX (1 □/ml) or vehicle only for 90 minutes at 37° C. The cells were used for chemotaxis assay with HFYLPM (1 μM), MFYLPM (1 μM), HFYLPm (100 nM), and fMLF (100 nM). The numbers of migrated cells were determined by counting them in a high power field (400×). The results are illustrated in FIG. 8. The data of FIG. 8 are presented as means±S.E. of two independent experiments each performed in duplicate. *P<0.01 versus medium treatment and †P<0.01 versus peptide treatment, respectively.

[3] = LY294002 50 μM, GF109203X 5 μM, PD98059 50 μM, 10 nM HFYLPm
[4] = LY294002 50 μM, GF109203X 5 μM, PD98059 50 μM

Row | inhibition of HFYLPm-induced chemotaxis (monocytes [1]; PD98059 50 μM, 60 minutes pretreatment, 1 μM HFYLPM) | Compound | inhibition of HFYLPm-induced chemotaxis (monocytes [1]; [3]) | inhibition of MFYLPM-induced chemotaxis (monocytes [1]; [4]) | inhibition at 50 µM (monocytes [1]; Homo sapiens, Monocyte, LY294002 50 μM, GF109203X 5 μM, 15 minutes pretreatment, 1 μM HFYLPM) [%] | inhibition of HFYLPm-induced chemotaxis (monocytes [1]; LY294002 50 μM, GF109203X 5 μM, 15 minutes pretreatment, 1 μM HFYLPM) [%] | inhibition of HFYLPm-induced monocyte chemotaxis (monocytes [2]; HFYLPM 1 μM) | inhibition of HFYLPm-induced monocyte chemotaxis (monocytes [2]; HFYLPm 100 nM) | inhibition of MFYLPM-induced monocyte chemotaxis (monocytes [2]; MFYLPM 1 μM) | inhibition of fMLF-induced monocyte chemotaxis (monocytes [2]; fMLF 100 nM)
1 |  | O=c1cc(N2CCOCC2)oc2c(-c3ccccc3)cccc12 [LY294002] | no effect | no effect | ~75 |  |  |  |  | 
2 |  | CN(C)CCCn1cc(C2=C(c3c[nH]c4ccccc34)C(=O)NC2=O)c2ccccc21 [GF109203X] | no effect | no effect |  | ~50 |  |  |  | 
3 |  | pertussis toxin [PTX] |  |  |  |  | complete inhibition | complete inhibition | complete inhibition | completely blocked
4 | almost complete inhibition | COc1cccc(-c2cc(=O)c3ccccc3o2)c1N [PD98059] | almost complete inhibition | almost complete inhibition |  |  |  |  |  | 
